From patent publication US11780845B2 (Relay Therapeutics, Inc., priority 2019, dated 2023)

Tests used:
[1] = target: FGFR2 (Homo sapiens (Human), UniProt P21802); experiment: FGFR2 Biochemical Caliper Assay
Protocol: Compounds of the present invention were also tested in a FGFR2 Biochemical Caliper Assay. Compounds were prepared in 10 mM DMSO solution and serially diluted into 11 concentrations by 3-fold dilution. […] 5 uL of ATP solution (100 uM) was added to start the reaction and the plate was incubated for 90 minutes, then 70 uL of stopping buffer (0.5M EDTA) was added to terminate the reaction. Each well was analyzed using EZ reader.

[2] = system: SNU16 cells; experiment: SNU16 Cancer Cell Line Proliferation Assay; type: cell-based; conditions: Homo sapiens; SNU-16 cells
Procedure, shortened: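 SNU16 cells were seeded, held 24 h at 37 degrees, then dosed with an 11-point 3-fold dilution series prepared from a 10 mM DMSO stock. After 96 h incubation, viability was read by CellTiter Glo luminescence.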

FGFR2, sequence (P21802 22-821): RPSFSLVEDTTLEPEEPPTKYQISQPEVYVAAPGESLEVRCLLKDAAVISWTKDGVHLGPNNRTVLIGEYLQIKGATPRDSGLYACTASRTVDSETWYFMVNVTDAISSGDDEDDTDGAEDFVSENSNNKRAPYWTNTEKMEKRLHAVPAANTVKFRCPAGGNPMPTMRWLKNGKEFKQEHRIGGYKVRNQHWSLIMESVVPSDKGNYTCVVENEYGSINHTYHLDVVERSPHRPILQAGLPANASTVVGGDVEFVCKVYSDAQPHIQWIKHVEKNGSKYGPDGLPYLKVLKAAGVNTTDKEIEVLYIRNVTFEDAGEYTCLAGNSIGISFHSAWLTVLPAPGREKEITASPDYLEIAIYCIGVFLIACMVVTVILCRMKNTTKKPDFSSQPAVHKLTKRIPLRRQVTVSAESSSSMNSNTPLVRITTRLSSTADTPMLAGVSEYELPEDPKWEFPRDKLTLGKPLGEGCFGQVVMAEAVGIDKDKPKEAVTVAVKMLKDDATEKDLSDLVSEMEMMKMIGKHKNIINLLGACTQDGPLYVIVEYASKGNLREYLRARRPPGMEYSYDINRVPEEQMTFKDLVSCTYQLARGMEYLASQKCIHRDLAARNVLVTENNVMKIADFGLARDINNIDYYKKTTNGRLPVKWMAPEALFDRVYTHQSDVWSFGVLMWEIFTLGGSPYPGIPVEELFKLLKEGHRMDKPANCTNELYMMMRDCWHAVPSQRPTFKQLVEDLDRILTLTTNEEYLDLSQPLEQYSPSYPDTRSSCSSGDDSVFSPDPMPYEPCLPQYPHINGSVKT

| Structure (SMILES) | IC50 [1] [µM] | IC50 [2] [µM] |
| --- | --- | --- |
| C=CC(=O)N1CC=C(c2c(-c3ccc(OC)cc3)c3c(N)ncnc3n2C)CC1 [Example 654] | < 0.1 | ≤ 0.1 |
| C/C(=C\CN(C)C)C(=O)N1CCC(n2cc(-c3c(-c4ccc(Oc5cccc(C)n5)cc4)c4c(N)ncnc4n3C)cn2)CC1 [Example 655] | 0.25 to 1 | 1 to 100 |
| C=CC(=O)N1CC=C(c2c(-c3ccc(Oc4cccc(C)n4)cc3)c3c(N)ncnc3n2C)CC1 [Example 656] | < 0.1 | ≤ 0.1 |
| C=CC(=O)N1CCC=C(c2c(-c3ccc(Oc4cccc(C)n4)c(OC)c3)c3c(N)ncnc3n2C)C1 [Example 657] | 1 to 100 | 1 to 100 |
| C=CC(=O)N1CCC(c2nc(-c3c(-c4ccc(Oc5cccc(C)n5)cc4)c4c(N)ncnc4n3C)no2)CC1 [Example 660] | < 0.1 | ≤ 0.1 |
| C=CC(=O)N1CCCC(c2c(-c3ccc(Oc4cccc(C)n4)c(OC)c3)c3c(N)ncnc3n2C)C1 (stereo not shown) [Example 661] | 1 to 100 | 1 to 100 |
| C=CC(=O)NC1CCC(c2c(-c3ccc(Oc4cccc(C)n4)cc3)c3c(N)ncnc3n2C)CC1 (stereo not shown) [Example 662] | 0.1 to 0.25 | 0.25 to 1 |
| C=CC(=O)N1CCCC(c2c(-c3ccc(Oc4cccc(C)n4)cc3)c3c(N)ncnc3n2C)C1 (stereo not shown) [Example 663] | 0.25 to 1 | 0.25 to 1 |
| C=CC(=O)N1CCC(n2cc(-c3c(-c4ccc(Oc5ccccn5)c(OC)c4)c4c(N)ncnc4n3C)cn2)CC1C (stereo not shown) [Example 664] | 0.1 to 0.25 | 0.1 to 0.25 |
| C=CC(=O)N1CCC=C(c2c(-c3ccc(Oc4cccc(C)n4)cc3)c3c(N)ncnc3n2C)C1 [Example 665] | 0.1 to 0.25 | 0.25 to 1 |
| C=CC(=O)N1CC=C(c2c(-c3ccc(Oc4cccc(C)n4)cc3)c3c(N)ncnc3n2C)C1 [Example 666] | < 0.1 | ≤ 0.1 |
| C=CC(=O)N1CC=C(c2c(-c3ccc(Oc4cccc(C)n4)c(OC)c3)c3c(N)ncnc3n2C)C1 [Example 667] | 0.1 to 0.25 | 0.1 to 0.25 |
| C/C=C(\C#N)C(=O)N1CCC(n2cc(-c3c(-c4ccc(Oc5cccc(C)n5)cc4)c4c(N)ncnc4n3C)cn2)CC1 [Example 668] | < 0.1 | 1 to 100 |
| C=CC(=O)N1CCC(n2cc(-c3c(-c4ccc(Oc5ccccn5)c(OC)c4)c4c(N)ncnc4n3C)cn2)CC1 [Example 669] | 0.25 to 1 | 0.25 to 1 |
| C=CC(=O)N1CCC(c2c(-c3ccc(Oc4cccc(C)n4)c(OC)c3)c3c(N)ncnc3n2C)C1 (stereo not shown) [Example 670] | 0.25 to 1 | 0.25 to 1 |
| C/C(=C\CN(C)C)C(=O)N1CC(n2cc(-c3c(-c4ccc(Oc5cccc(C)n5)cc4)c4c(N)ncnc4n3C)cn2)C1 [Example 671] | 0.25 to 1 | 1 to 100 |
| C=CC(=O)N1CCC(n2cc(-c3c(-c4ccc(Oc5cccc(C)c5)c(OC)c4)c4c(N)ncnc4n3C)cn2)CC1 [Example 672] | 0.1 to 0.25 | 0.25 to 1 |
| C=CC(=O)N1CCC(n2ncc(-c3c(-c4ccc(Oc5cccc(C)n5)c(OC)c4)c4c(N)ncnc4n3C)c2C)CC1 [Example 673] | < 0.1 | ≤ 0.1 |
| C=CC(=O)N1CC=C(c2c(-c3ccc(Oc4ncccn4)c(OC)c3)c3c(N)ncnc3n2C)CC1 [Example 674] | < 0.1 | ≤ 0.1 |
| C=CC(=O)N1CCC(c2c(-c3ccc(Oc4ccccn4)c(OC)c3)c3c(N)ncnc3n2C)C1 (stereo not shown) [Example 675] | 0.25 to 1 | 1 to 100 |

| Structure (SMILES) | IC50 [1] [µM] | IC50 [2] [µM] |
| --- | --- | --- |
| C=CC(=O)N1CC=C(c2c(-c3ccc(Oc4ccccn4)c(OC)c3)c3c(N)ncnc3n2C)CC1 [Example 676] | < 0.1 | ≤ 0.1 |
| C=CC(=O)N1CC=C(c2c(-c3ccc(Oc4cc(C)ccn4)c(OC)c3)c3c(N)ncnc3n2C)CC1 [Example 677] | < 0.1 | ≤ 0.1 |
| C=CC(=O)N1CC=C(c2c(-c3ccc(Oc4cncc(C)c4)c(OC)c3)c3c(N)ncnc3n2C)CC1 [Example 678] | < 0.1 | 0.1 to 0.25 |
| C=CC(=O)N1CC=C(c2c(-c3ccc(Oc4ncccn4)cc3)c3c(N)ncnc3n2C)CC1 [Example 680] | < 0.1 | ≤ 0.1 |
| C=CC(=O)N1CC=C(c2c(-c3ccc(Oc4ccccn4)cc3)c3c(N)ncnc3n2C)CC1 [Example 681] | < 0.1 | ≤ 0.1 |
| C=CC(=O)N1CCC(c2c(-c3ccc(Oc4ncccn4)cc3)c3c(N)ncnc3n2C)C1 (stereo not shown) [Example 682] | 0.1 to 0.25 | ≤ 0.1 |
| C=CC(=O)N1CC=C(c2c(-c3ccc(Oc4ccc(C)cn4)c(OC)c3)c3c(N)ncnc3n2C)CC1 [Example 683] | < 0.1 | ≤ 0.1 |
| C=CC(=O)N1CCC(n2nc(-c3c(-c4ccc(Oc5cccc(C)n5)c(OC)c4)c4c(N)ncnc4n3C)cc2C)CC1 [Example 684] | 1 to 100 | 1 to 100 |
| C=CC(=O)N1CCC(c2c(-c3ccc(Oc4ccc(C)nc4)c(OC)c3)c3c(N)ncnc3n2C)C1 (stereo not shown) [Example 685] | 1 to 100 | 1 to 100 |
| C=CC(=O)N1CC=C(c2c(-c3ccc(Oc4ncccn4)cc3)c3c(N)ncnc3n2C)C1 [Example 686] | < 0.1 | ≤ 0.1 |
| C=CC(=O)N1CCC(c2c(-c3ccc(Oc4ncccn4)c(OC)c3)c3c(N)ncnc3n2C)C1 (stereo not shown) [Example 687] | 1 to 100 | 1 to 100 |
| C=C(C)C(=O)N1CC=C(c2c(-c3ccc(Oc4ncccn4)cc3)c3c(N)ncnc3n2C)C1 [Example 688] | 1 to 100 | 1 to 100 |
| C=CC(=O)N1CCC(c2c(-c3ccc(Oc4ccccn4)cc3)c3c(N)ncnc3n2C)C1 (stereo not shown) [Example 689] | < 0.1 | ≤ 0.1 |
| C=CC(=O)N1CC=C(c2c(-c3ccc(Oc4cccc(CC)n4)c(OC)c3)c3c(N)ncnc3n2C)CC1 [Example 690] | < 0.1 | ≤ 0.1 |
| C=C(C)C(=O)N1CCC(c2c(-c3ccc(Oc4cccc(C)n4)cc3)c3c(N)ncnc3n2C)C1 (stereo not shown) [Example 691] | 0.25 to 1 | 1 to 100 |
| C/C=C/C(=O)N1CCC(c2c(-c3ccc(Oc4cccc(C)n4)cc3)c3c(N)ncnc3n2C)C1 (stereo not shown) [Example 692] | 1 to 100 | 1 to 100 |
| C=C(C)C(=O)N1CCC(c2c(-c3ccc(Oc4cccc(C)n4)cc3)c3c(N)ncnc3n2C)CC1 [Example 693] | 0.25 to 1 | 1 to 100 |
| C/C=C/C(=O)N1CCC(c2c(-c3ccc(Oc4cccc(C)n4)cc3)c3c(N)ncnc3n2C)CC1 [Example 694] | 0.25 to 1 | 0.25 to 1 |
| CC#CC(=O)N1CCC(c2c(-c3ccc(Oc4cccc(C)n4)cc3)c3c(N)ncnc3n2C)CC1 [Example 695] | 0.1 to 0.25 | ≤ 0.1 |
| C=CC(=O)N1CCC(c2c(-c3ccc(Oc4ncccn4)cc3)c3c(N)ncnc3n2C)CC1 [Example 696] | 0.25 to 1 | 0.1 to 0.25 |

| Structure (SMILES) | IC50 [1] [µM] | IC50 [2] [µM] |
| --- | --- | --- |
| CC#CC(=O)N1CCC(c2c(-c3ccc(Oc4cccc(C)n4)cc3)c3c(N)ncnc3n2C)C1 (stereo not shown) [Example 699] | 0.1 to 0.25 | ≤ 0.1 |
| C=CC(=O)N1CCC(c2c(-c3ccccc3)c3c(N)ncnc3n2C)C1 (stereo not shown) [Example 700] | 1 to 100 | 0.25 to 1 |
| C=CC(=O)N1CCC(c2c(-c3ccc(Oc4ccccn4)cc3)c3c(N)ncnc3n2C)CC1 [Example 701] | < 0.1 | ≤ 0.1 |
| C=CC(=O)N1CCC(c2c(-c3ccc(OC)cc3)c3c(N)ncnc3n2C)C1 (stereo not shown) [Example 702] | 0.25 to 1 | 0.1 to 0.25 |
| C=C(C)C(=O)Nc1ccc(-c2[nH]c3ncnc(N)c3c2-c2ccc(Oc3cccc(C)n3)cc2)cc1 [Example 703] | < 0.1 | ≤ 0.1 |
| C=CC(=O)N1CCC(c2c(-c3ccc(Oc4ncccn4)cc3)c3c(N)ncnc3n2C2CCOCC2)C1 (stereo not shown) [Example 704] | 0.25 to 1 | 0.1 to 0.25 |
| C=CC(=O)N1CCC(c2c(-c3ccc(Oc4ncccn4)cc3)c3c(N)ncnc3n2CC)C1 (stereo not shown) [Example 705] | 0.1 to 0.25 | ≤ 0.1 |
| C=CC(=O)N1CCC(c2c(-c3ccc(Oc4ccc(Cl)cn4)cc3)c3c(N)ncnc3n2C)C1 (stereo not shown) [Example 706] | < 0.1 | ≤ 0.1 |
| C=CC(=O)N1CCC(c2c(-c3ccc(Oc4ncccn4)cc3)c3c(N)ncnc3n2CCN(C)C)C1 (stereo not shown) [Example 707] | 1 to 100 | 1 to 100 |
| C=CC(=O)N1CCC(c2[nH]c3ncnc(N)c3c2-c2ccc(Oc3ncccn3)cc2)C1 (stereo not shown) [Example 709] | < 0.1 | ≤ 0.1 |
| C=CC(=O)N1CC[C@@H](c2[nH]c3ncnc(N)c3c2-c2ccc(Oc3ncccn3)cc2)C1 [Example 713] | < 0.1 | ≤ 0.1 |
| C=CC(=O)N1CCC(c2c(-c3ccc(Oc4ncccn4)cc3)c3c(N)ncnc3n2C2CC(O)C2)C1 (stereo not shown) [Example 714] | < 0.1 | ≤ 0.1 |
| C=CC(=O)N1CCC(c2c(-c3cnn(CCN(C)C)c3)c3c(N)ncnc3n2C)C1 (stereo not shown) [Example 715] | 1 to 100 | 1 to 100 |
| C=CC(=O)N1CCC(c2c(-c3ccc(OC4CCCC4)cc3)c3c(N)ncnc3n2C)C1 (stereo not shown) [Example 716] | < 0.1 | ≤ 0.1 |
| C=CC(=O)N1CCC(c2c(-c3ccc(OCCOC)cc3)c3c(N)ncnc3n2C)C1 (stereo not shown) [Example 717] | 1 to 100 | 0.25 to 1 |
| C=CC(=O)N1CCC(c2c(-c3ccc(C(=O)N4CCC(F)(F)C4)cc3)c3c(N)ncnc3n2C)C1 (stereo not shown) [Example 718] | 0.25 to 1 | 0.25 to 1 |
| C=CC(=O)N1CCC(c2c(-c3ccc(N4CCCC4)cc3)c3c(N)ncnc3n2C)C1 (stereo not shown) [Example 719] | < 0.1 | ≤ 0.1 |
| C=CC(=O)N1CCC(c2c(-c3ccc(N(C)C(C)=O)cc3)c3c(N)ncnc3n2C)C1 (stereo not shown) [Example 720] | 1 to 100 | 1 to 100 |
| C=CC(=O)N1CCC(c2c(-c3ccc(COC)cc3)c3c(N)ncnc3n2C)C1 (stereo not shown) [Example 721] | 0.25 to 1 | 0.25 to 1 |
